From US11272709B2, “Amidine substituted benzoyl derivatives useful as herbicides” (Syngenta Participations AG, priority 2018, dated 2022)

Assays:
Assay type in all cases: in vivo
Conditions in all cases: evaluated after 13 days
[1] = test system: Setaria faberi (SETFA); test: Post-emergence herbicidal glasshouse test, Setaria faberi (SETFA)
Protocol: (§1) Seeds of a variety of test species are sown in standard soil in pots (Lolium perenne (LOLPE), Amaranthus retoflexus (AMARE), Abutilon theophrasti (ABUTH), Setaria faberi (SETFA), Echinochloa crus-galli (ECHCG), Ipomoea hederacea (IPOHE)). After cultivation for one day (pre-emergence) or after 8 days cultivation (post-emergence) under controlled conditions in a glasshouse (at 24/16° C., day/night; 14 hours light; 65% humidity), the plants are sprayed with an aqueous spray solution derived from the formulation of the technical active ingredient in acetone/water (50:50) solution containing 0.5% Tween 20 (polyoxyethelyene sorbitan monolaurate, CAS RN 9005-64-5). Compounds are applied at 500 g/h unless otherwise indicated. The test plants are then grown in a glasshouse under controlled conditions in a glasshouse (at 24/16° C., day/night; 14 hours light; 65% humidity) and watered twice daily. After 13 days for pre and post-emergence, the test is evaluated for the percentage damage caused to the plant. The biological activities are shown in the following table on a five point scale (5=80-100%; 4=60-79%; 3=40-59%; 2=20-39%; 1=0-19%).

[2] = test system: Ipomoea hederacea (IPOHE); test: Pre-emergence herbicidal glasshouse test, Ipomoea hederacea (IPOHE)
Protocol: as §1

[3] = test system: Echinochloa crus-galli (ECHCG); test: Post-emergence herbicidal glasshouse test, Echinochloa crus-galli (ECHCG)
Protocol: as §1

[4] = test system: Ipomoea hederacea (IPOHE); test: Post-emergence herbicidal glasshouse test, Ipomoea hederacea (IPOHE)
Protocol: as §1

[5] = test system: Abutilon theophrasti (ABUTH); test: Post-emergence herbicidal glasshouse test, Abutilon theophrasti (ABUTH)
Protocol: as §1

[6] = test system: Abutilon theophrasti (ABUTH); test: Pre-emergence herbicidal glasshouse test, Abutilon theophrasti (ABUTH)
Protocol: as §1

[7] = test system: Echinochloa crus-galli (ECHCG); test: Pre-emergence herbicidal glasshouse test, Echinochloa crus-galli (ECHCG)
Protocol: as §1

[8] = test system: Amaranthus retoflexus (AMARE); test: Post-emergence herbicidal glasshouse test, Amaranthus retoflexus (AMARE)
Protocol: as §1

[9] = test system: Amaranthus retoflexus (AMARE); test: Pre-emergence herbicidal glasshouse test, Amaranthus retoflexus (AMARE)
Protocol: as §1

[10] = test system: Setaria faberi (SETFA); test: Pre-emergence herbicidal glasshouse test, Setaria faberi (SETFA)
Protocol: as §1

Row | Compound | POST Application SETFA, percentage damage (five point scale) ([1]; 500 g/h) | PRE Application IPOHE, percentage damage (five point scale) ([2]; 500 g/h) | POST Application ECHCG, percentage damage (five point scale) ([3]; 500 g/h) | POST Application IPOHE, percentage damage (five point scale) ([4]; 500 g/h) | POST Application ABUTH, percentage damage (five point scale) ([5]; 500 g/h) | PRE Application ABUTH, percentage damage (five point scale) ([6]; 500 g/h) | PRE Application ECHCG, percentage damage (five point scale) ([7]; 500 g/h) | POST Application AMARE, percentage damage (five point scale) ([8]; 500 g/h) | PRE Application AMARE, percentage damage (five point scale) ([9]; 500 g/h) | PRE Application SETFA, percentage damage (five point scale) ([10]; 500 g/h) | further results
1 | CN(C)C=Nc1c(S(C)(=O)=O)ccc(C(=O)Nc2nnnn2C)c1Cl [Compound 1.057] |  |  |  |  |  |  |  |  |  |  | POST Application SETFA, percentage damage (five point scale) ([1]; applied at 125 g/ha): 5 (5=80-100%); PRE Application IPOHE, percentage damage (five point scale) ([2]; applied at 125 g/ha): 5 (5=80-100%); POST Application ECHCG, percentage damage (five point scale) ([3]; applied at 125 g/ha): 5 (5=80-100%); POST Application IPOHE, percentage damage (five point scale) ([4]; applied at 125 g/ha): 5 (5=80-100%); POST Application ABUTH, percentage damage (five point scale) ([5]; applied at 125 g/ha): 5 (5=80-100%); PRE Application ABUTH, percentage damage (five point scale) ([6]; applied at 125 g/ha): 5 (5=80-100%); PRE Application ECHCG, percentage damage (five point scale) ([7]; applied at 125 g/ha): 5 (5=80-100%); POST Application AMARE, percentage damage (five point scale) ([8]; applied at 125 g/ha): 5 (5=80-100%); PRE Application AMARE, percentage damage (five point scale) ([9]; applied at 125 g/ha): 5 (5=80-100%); PRE Application SETFA, percentage damage (five point scale) ([10]; applied at 125 g/ha): 5 (5=80-100%)
2 | CC(=NOCc1c(S(C)(=O)=O)ccc(C(=O)Nc2nnnn2C)c1Cl)N(C)C [Compound 1.129] | 5 (5=80-100%) | 5 (5=80-100%) | 5 (5=80-100%) | 5 (5=80-100%) | 5 (5=80-100%) | 5 (5=80-100%) | 5 (5=80-100%) | 5 (5=80-100%) | 5 (5=80-100%) | 5 (5=80-100%) | 
3 | CN(/C=N/c1c(C(F)(F)F)ccc(C(=O)Nc2nnnn2C)c1Cl)CC(F)(F)F [Compound 1.130, 2-chloro-N-(1-methyltetrazol-5-yl)-3-[(E)-[methyl(2,2,2-trifluoroethyl)amino]methyleneamino]-4-(trifluoromethyl)benzamide] | 5 (5=80-100%) | 5 (5=80-100%) | 5 (5=80-100%) | 5 (5=80-100%) | 5 (5=80-100%) | 5 (5=80-100%) | 5 (5=80-100%) | 5 (5=80-100%) | 5 (5=80-100%) | 5 (5=80-100%) | 
4 | CN(C=Nc1c(C(F)(F)F)ccc(C(=O)Nc2nnnn2C)c1Cl)c1ccccc1 [Compound 1.131] | 5 (5=80-100%) | 5 (5=80-100%) | 5 (5=80-100%) | 5 (5=80-100%) | 5 (5=80-100%) | 5 (5=80-100%) | 5 (5=80-100%) | 5 (5=80-100%) | 5 (5=80-100%) | 5 (5=80-100%) | 
5 | Cn1nnnc1NC(=O)c1ccc(C(F)(F)F)c(/N=C/N2CCCC2)c1Cl [Compound 1.132, 2-chloro-N-(1-methyltetrazol-5-yl)-3-[(E)-pyrrolidin-1-ylmethyleneamino]-4-(trifluoromethyl)benzamide] | 5 (5=80-100%) | 5 (5=80-100%) | 5 (5=80-100%) | 5 (5=80-100%) | 5 (5=80-100%) | 5 (5=80-100%) | 5 (5=80-100%) | 5 (5=80-100%) | 5 (5=80-100%) | 5 (5=80-100%) | 
6 | Cn1nnnc1NC(=O)c1ccc(C(F)(F)F)c(N=CN2CCOCC2)c1Cl [Compound 1.135] |  |  |  |  |  |  |  |  |  |  | POST Application SETFA, percentage damage (five point scale) ([1]; applied at 250 g/ha): 5 (5=80-100%); PRE Application IPOHE, percentage damage (five point scale) ([2]; applied at 250 g/ha): 5 (5=80-100%); POST Application ECHCG, percentage damage (five point scale) ([3]; applied at 250 g/ha): 3 (3=40-59%); POST Application IPOHE, percentage damage (five point scale) ([4]; applied at 250 g/ha): 5 (5=80-100%); POST Application ABUTH, percentage damage (five point scale) ([5]; applied at 250 g/ha): 5 (5=80-100%); PRE Application ABUTH, percentage damage (five point scale) ([6]; applied at 250 g/ha): 5 (5=80-100%); PRE Application ECHCG, percentage damage (five point scale) ([7]; applied at 250 g/ha): 5 (5=80-100%); POST Application AMARE, percentage damage (five point scale) ([8]; applied at 250 g/ha): 5 (5=80-100%); PRE Application AMARE, percentage damage (five point scale) ([9]; applied at 250 g/ha): 5 (5=80-100%); PRE Application SETFA, percentage damage (five point scale) ([10]; applied at 250 g/ha): 5 (5=80-100%)
